Where a name gives a salt, the structure may show the parent alone.

One test concerns EmGFP-HaloTag. The test can be described thus: Test Example 1: HeLa cells stably expressing EmGFP-HaloTag, Western blot GFP/actin (Testing Method A). The test is classed as cell-based. The conditions noted are these: 1 uM, 24 hours, 1 or less = degradation promoted. The procedure:
Test Example 1: Evaluation Method Using Cell Stably Expressing EmGFP-HaloTag (Testing Method A)
HeLa cells stably expressing EmGFP-HaloTag were inoculated to Dulbecco's Modified Eagle Medium (DMEM) and cultured for 24 hours. Then, a test compound (specifically, compounds of Examples 1 to 7, 9 to 11, 13 to 15, 17 to 20, 24 to 27, 29, 32 to 33, 36 to 42, 44 to 46 and 56) was added thereto at the final concentration shown in Table 2, followed by incubation for 24 hours under conditions of 37° C./5% CO2. The cells were washed with PBS three times and treated with a cell lysis solution containing a proteolytic enzyme inhibitor to obtain a cell extract. The cell extract was subjected to SDS-PAGE. After the electrophoresis, GFP and actin were detected by Western blot. The ratio of the GFP/actin value of the drug-treated cells to the GFP/actin value of a control group in drug-untreated cells was regarded as an activity value. A value of 1 or less represents that degradation of EmGFP-HaloTag was promoted.
On the technique in general: A western blot detects proteins with antibodies after separation by electrophoresis.
Turning to `Nc1nc2c(nc(-c3cnn(CCOCCOCCOCCOCCOCCCCCCCl)c3)n2Cc2ccc(F)cc2)c(=O)[nH]1` [Example 14, 2-amino-8-(1-(21-chloro-3,6,9,12,15-pentaoxahenicos-1-yl)-1H-pyrazol-4-yl)-9-(4-fluorobenzyl)-1,9-dihydro-6H-purin-6-one], the “Activity value (GFP/actin of drug-treated cells relative to drug-untreated control)” value turned out to be 0.2.

In the case of `Nc1nc2c(nc(-c3cn(CCOCCOCCOCCOCCOCCCCCCCl)nn3)n2Cc2ccc(F)cc2)c(=O)[nH]1` [Example 15, 2-Amino-8-(1-(21-chloro-3,6,9,12,15-pentaoxahenicos-1-yl)-1H-1,2,3-triazol-4-yl)-9-(4-fluorobenzyl)-1,9-dihydro-6H-purin-6-one], the “Activity value (GFP/actin of drug-treated cells relative to drug-untreated control)” value turned out to be 0.9. In the case of `CC(=O)N[C@@H](CSc1nc2c(N)ncnc2n1Cc1ccc(F)cc1)C(=O)NCCOCCOCCOCCOCCOCCCCCCCl` [Example 17, N^2-Acetyl-S-(6-amino-9-(4-fluorobenzyl)-9H-purin-8-yl)-N-(21-chloro-3,6,9,12,15-pentaoxahenicos-1-yl)-L-cysteinamide trifluoroacetate], the “Activity value (GFP/actin of drug-treated cells relative to drug-untreated control)” value is given as 0.7. As for `CC(=O)N[C@@H](CSc1nc2cncnc2n1Cc1ccc(F)cc1)C(=O)NCCOCCOCCOCCOCCOCCCCCCCl` [Example 18, N^2-Acetyl-N-(21-chloro-3,6,9,12,15-pentaoxahenicos-1-yl)-S-(9-(4-fluorobenzyl)-9H-purin-8-yl)-L-cysteinamide], the “Activity value (GFP/actin of drug-treated cells relative to drug-untreated control)” value is 0.1.

`CC(=O)N[C@@H](CSc1nc2c(=O)[nH]c(N)nc2n1Cc1ccccc1Cl)C(=O)NCCOCCOCCOCCOCCOCCCCCCCl` [Example 24, N^2-acetyl-S-(2-amino-9-(2-chlorobenzyl)-6-oxo-6,9-dihydro-1H-purin-8-yl)-N-(21-chloro-3,6,9,12,15-pentaoxahenicos-1-yl)-L-cysteinamide]: the “Activity value (GFP/actin of drug-treated cells relative to drug-untreated control)” value worked out at 0.5. Turning to `CC(=O)N[C@@H](CSc1nc2c(=O)[nH]c(N)nc2n1Cc1ccc(C)cc1)C(=O)NCCOCCOCCOCCOCCOCCCCCCCl` [Example 25, N^2-acetyl-S-(2-amino-9-(4-methylbenzyl)-6-oxo-6,9-dihydro-1H-purin-8-yl)-N-(21-chloro-3,6,9,12,15-pentaoxahenicos-1-yl)-L-cysteinamide], the “Activity value (GFP/actin of drug-treated cells relative to drug-untreated control)” value came to 0.9. On to `CC(=O)N[C@@H](CSc1nc2c(=O)[nH]cnc2n1Cc1ccc(F)cc1)C(=O)NCCOCCOCCOCCOCCOCCCCCCCl` [Example 26, N^2-Acetyl-N-(21-chloro-3,6,9,12,15-pentaoxahenicos-1-yl)-S-(9-(4-fluorobenzyl)-6-oxo-6,9-dihydro-1H-purin-8-yl)-L-cysteinamide], for which the “Activity value (GFP/actin of drug-treated cells relative to drug-untreated control)” value amounted to 0.5. Same read-out and setting: in the case of `CC(=O)Nc1nc2c(nc(SC[C@H](NC(C)=O)C(=O)NCCOCCOCCOCCOCCOCCCCCCCl)n2Cc2ccc(F)cc2)c(=O)[nH]1` [Example 27, S-(2-Acetamido-9-(4-fluorobenzyl)-6-oxo-6,9-dihydro-1H-purin-8-yl)-N^2-acetyl-N-(21-chloro-3,6,9,12,15-pentaoxahenicos-1-yl)-L-cysteinamide] it was 0.7. With `Nc1nc2c(nc(C(=O)NCCOCCOCCOCCOCCOCCCCCCCl)n2Cc2ccc(F)cc2)c(=O)[nH]1` [Example 33, 2-Amino-N-(21-chloro-3,6,9,12,15-pentaoxahenicos-1-yl)-9-(4-fluorobenzyl)-6-oxo-6,9-dihydro-1H-purine-8-carboxamide], the “Activity value (GFP/actin of drug-treated cells relative to drug-untreated control)” value is 0.9. With `CC(=O)N[C@@H](CSc1nc2c(=O)[nH]c(N)nc2n1Cc1cccc(Cl)c1)C(=O)NCCOCCOCCOCCOCCOCCCCCCCl` [Example 37, N^2-acetyl-S-(2-amino-9-(3-chlorobenzyl)-6-oxo-6,9-dihydro-1H-purin-8-yl)-N-(21-chloro-3,6,9,12,15-pentaoxahenicos-1-yl)-L-cysteinamide], the “Activity value (GFP/actin of drug-treated cells relative to drug-untreated control)” value is 0.7.

For the compound `CC(=O)N[C@@H](CSc1nc2c(=O)[nH]c(N)nc2n1Cc1ccc(S(C)(=O)=O)cc1)C(=O)NCCOCCOCCOCCOCCOCCCCCCCl` [Example 39, N^2-acetyl-S-(2-amino-9-(4-(methylsulfonyl)benzyl)-6-oxo-6,9-dihydro-1H-purin-8-yl)-N-(21-chloro-3,6,9,12,15-pentaoxahenicos-1-yl)-L-cysteinamide], the “Activity value (GFP/actin of drug-treated cells relative to drug-untreated control)” value stood at 0.7.

Turning to `CC(=O)N[C@@H](CSc1nc2c(=O)[nH]c(N)nc2n1-c1ccccc1)C(=O)NCCOCCOCCOCCOCCOCCCCCCCl` [Example 40, N^2-acetyl-S-(2-amino-6-oxo-9-phenyl-6,9-dihydro-1H-purin-8-yl)-N-(21-chloro-3,6,9,12,15-pentaoxahenicos-1-yl)-L-cysteinamide], the “Activity value (GFP/actin of drug-treated cells relative to drug-untreated control)” value is 0.7. The same measure, in the same setting: in the case of `CC(=O)N[C@@H](CSc1nc2c(=O)[nH]c(N)nc2n1Cc1cccnc1)C(=O)NCCOCCOCCOCCOCCOCCCCCCCl` [Example 41, N^2-acetyl-S-(2-amino-6-oxo-9-(pyridin-3-ylmethyl)-6,9-dihydro-1H-purin-8-yl)-N-(21-chloro-3,6,9,12,15-pentaoxahenicos-1-yl)-L-cysteinamide trifluoroacetic acid salt] it was 0.5; in that of `CC(=O)N[C@@H](CSc1nc2c(=O)[nH]c(N)nc2n1Cc1cncs1)C(=O)NCCOCCOCCOCCOCCOCCCCCCCl` [Example 42, N^2-acetyl-S-(2-amino-6-oxo-9-(1,3-thiazole-5-ylmethyl)-6,9-dihydro-1H-purin-8-yl)-N-(21-chloro-3,6,9,12,15-pentaoxahenicos-1-yl)-L-cysteinamide], 0.8.

Take `CC(=O)N[C@@H](CSc1nc2c(=O)n3cc[nH]c3nc2n1Cc1ccc(F)cc1)C(=O)NCCOCCOCCOCCOCCOCCCCCCCl` [Example 44, N^2-Acetyl-N-(21-chloro-3,6,9,12,15-pentaoxahenicos-1-yl)-S-(3-(4-fluorobenzyl)-9-oxo-5,9-dihydro-3H-imidazo[1,2-a]purin-2-yl)-L-cysteinamide]: the “Activity value (GFP/actin of drug-treated cells relative to drug-untreated control)” value was 0.9.

Still in this test, the particulars now being: 10 uM, 24 hours, 1 or less = degradation promoted.
Regarding `CC(=O)N[C@@H](CSc1c(NCc2ccc(F)cc2)nc(N)[nH]c1=O)C(=O)NCCOCCOCCOCCOCCOCCCCCCCl` [Example 19, N^2-Acetyl-S-(2-amino-4-((4-fluorobenzyl)amino)-6-oxo-1,6-dihydropyrimidin-5-yl)-N-(21-chloro-3,6,9,12,15-pentaoxahenicos-1-yl)-L-cysteinamide Trifluoroacetate], the “Activity value (GFP/actin of drug-treated cells relative to drug-untreated control)” value turned out to be 0.5. In the case of `CC(=O)N[C@@H](CSc1nc2c(=O)[nH]c(N)nc2n1Cc1ccccc1)C(=O)NCCOCCOCCOCCOCCOCCCCCCCl` [Example 20, N^2-Acetyl-S-(2-amino-9-benzyl-6-oxo-6,9-dihydro-1H-purin-8-yl)-N-(21-chloro-3,6,9,12,15-pentaoxahenicos-1-yl)-L-cysteinamide Trifluoroacetate], the “Activity value (GFP/actin of drug-treated cells relative to drug-untreated control)” value came out at 0.2. The same measure, in the same setting: the result for `CC(=O)N[C@@H](CSc1nc2c(=O)[nH]c(N)nc2n1Cc1ccc(C#N)cc1)C(=O)NCCOCCOCCOCCOCCOCCCCCCCl` [Example 36, N^2-acetyl-S-(2-amino-9-(4-cyanobenzyl)-6-oxo-6,9-dihydro-1H-purin-8-yl)-N-(21-chloro-3,6,9,12,15-pentaoxahenicos-1-yl)-L-cysteinamide] reads 0.9; that for `CC(=O)N[C@@H](CSc1nc2c(N)nc(N)nc2n1Cc1ccc(F)cc1)C(=O)NCCOCCOCCOCCOCCOCCCCCCCl` [Example 45, N^2-Acetyl-N-(21-chloro-3,6,9,12,15-pentaoxahenicos-1-yl)-S-(2,6-diamino-9-(4-fluorobenzyl)-9H-purin-8-yl)-L-cysteinamide], 0.7.

Still in this test, the particulars now being: 100 uM, 24 hours, 1 or less = degradation promoted.
For the compound `CC(=O)N[C@@H](CSc1nc2c(=O)[nH]c(N)nc2n1CC1CCOCC1)C(=O)NCCOCCOCCOCCOCCOCCCCCCCl` [Example 29, N^2-acetyl-S-(2-amino-6-oxo-9-(tetrahydro-2H-pyran-4-ylmethyl)-6,9-dihydro-1H-purin-8-yl)-N-(21-chloro-3,6,9,12,15-pentaoxahenicos-1-yl)-L-cysteinamide], the “Activity value (GFP/actin of drug-treated cells relative to drug-untreated control)” value came to 0.5. Take `Nc1nc2c(nc(CNCCOCCOCCOCCOCCOCCCCCCCl)n2Cc2ccc(F)cc2)c(=O)[nH]1` [Example 32, 2-Amino-8-(23-chloro-5,8,11,14,17-pentaoxa-2-azatricos-1-yl)-9-(4-fluorobenzyl)-1,9-dihydro-6H-purin-6-one]: the “Activity value (GFP/actin of drug-treated cells relative to drug-untreated control)” value was determined as 0.7. As to `COc1ccc(Cn2c(SC[C@H](NC(C)=O)C(=O)NCCOCCOCCOCCOCCOCCCCCCCl)nc3c(=O)[nH]c(N)nc32)cc1` [Example 38, N^2-acetyl-S-(2-amino-9-(4-methoxybenzyl)-6-oxo-6,9-dihydro-1H-purin-8-yl)-N-(21-chloro-3,6,9,12,15-pentaoxahenicos-1-yl)-L-cysteinamide], the “Activity value (GFP/actin of drug-treated cells relative to drug-untreated control)” value was determined as 0.8.

The values are drawn from US11986480B2, “Heterocyclic compound” (TOHOKU UNIVERSITY, priority 2017, dated 2024).
